In publication PMC7998721, “A Comparative Study of the Effects of Platinum (II) Complexes on β-Amyloid Aggregation: Potential Neurodrug Applications” (International Journal of Molecular Sciences, 2021):

Legend:
[1] = target: T1, β-amyloid Aβ21–40 (C-terminal fragment of Aβ1–40) (Homo sapiens, UniProt P05067); assay: UV/Vis titration; ESI-MS […] adduct; also ThT aggregation; assay type: binding
T1 construct: gene APP

[2] = target: T1, β-amyloid Aβ21–40 (C-terminal fragment of Aβ1–40); assay: UV/Vis titration; ESI-MS […] adduct; also ThT aggregation and CD; assay type: binding

T1 sequence (P05067 692-711): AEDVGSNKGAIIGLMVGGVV

Row | SMILES | EC50 [1] | EC50 [2]
1 | [Cl][Pt-2]1([Cl])[n+]2cccc3ccc4ccc[n+]1c4c32 [Pt-phen, (SP-4-2)-dichlorido(1,10-phenanthroline)platinum(II)] | 49 ± 20 µM | –
2 | [Cl][Pt-2]12[n+]3ccccc3-c3cccc([n+]31)-c1cccc[n+]12 [Pt-terpy, (SP-4-2)-chlorido(2,2′:6′,2′′-terpyridine)platinum(II) chloride] | – | 68 ± 14 µM
